Experimental data reported in patent US6762197B2 (priority 1999, dated 2004).

Columns and labels:
Sphaerotheca fuliginea = Sphaerotheca fuliginea control effect test (Test Example 6, large-volume foliar spray on cucumber); type: in vivo; conditions: 200 ppm, flowable (Formulation Example 6), sprayed on cucumber (SAGAMI HANJIRO) before inoculation, 12 days at 23° C.
Protocol: Test Examples 1 to 6 are tests using a large amount (about 2000 L/ha) of spray on plants, and the extent of spraying is so that the whole surface of a plant body is completely wet and the sprayed liquid drips.
(§1) In the following tests, compounds of the invention are represented by compound numbers described in Tables 1 to 8. The control effect of a compound of the invention was evaluated by visually observing the area of a lesion on a sample plant in investigation and comparing the area of a lesion in a non-treatment district and the area of a lesion in a districts treated with the compound of the invention.
Sand loam was compacted in a plastic pot, a cucumber (SAGAMI HANJIRO) was seeded and grown in a green house for 12 days. Then, the Compound 1 was formulated into flowable fomulation according the Formulation Example 6, then, diluted with water to provide given concentration (200 ppm), and this was sprayed onto stems and leaves so as to give sufficient adhesion on the surface of cucumber leaves. After spraying, the plant was air-dried, and Sphaerotheca fuliginea spores were inoculated. After inoculation, the plant was first left for 12 days at 23° C., then, the control effect was checked.

Puccinia striiformis = Puccinia striiformis control test (Test Example 8, small-volume spray 200 L/ha on wheat); type: in vivo; conditions: 1000 ppm, emulsifiable formulation (Formulation Example 7), spray amount corresponding to 200 L/ha, wheat (NORIN No. 73), 1 day dark high humidity at 23° C. then 6 days under illumination
Text: (§2) Test Examples 7 and 8 are tests using a small amount (corresponding 200 L/ha) of spray on plants, in which fine small liquid drops of a spray are uniformly adhere to the surface of a plant body and the extent of spraying is insufficient to for complete wetting of the surface of a plant body.
(§3) Controlling on a wheat disease in a field is so conducted in some cases that the spray liquid amount is about 200 L/ha. In this case, the amount of the sprayed liquid is insufficient for wetting of the whole plant body, and the sprayed liquid is adheres on a plant as fine liquid drops. For exerting high control effect on the subject diseases even under such spray condition, suitable physicochemical properties such as permeation transfer property, volatility and the like are required in addition to a basic effect.
as §1
(§4) Sand loam was compacted in a plastic pot, a wheat (NORIN No. 73) was seeded and grown in a green house for 10 days. […]

Erysiphe graminis = Erysiphe graminis control effect test (Test Example 7, small-volume spray 200 L/ha on wheat); type: in vivo; conditions: 1000 ppm, emulsifiable formulation (Formulation Example 7), spray amount corresponding to 200 L/ha, wheat (NORIN No. 73), inoculated one day after, 7 days at 23° C.
Text: as §2, §3, §1, §4

Compound	melting point [°C]	lesion area on plants relative to the lesion area of a non-treatment district (Sphaerotheca fuliginea)	lesion in the treatment district (control effect) (Puccinia striiformis)	lesion in the treatment district (control effect) (Erysiphe graminis)
Cc1ccc(Br)cc1Cn1c(C(F)F)nn(C)c1=O	107.6			
Cc1ccc(-c2ccccc2)cc1Cn1c(C(F)F)nn(C)c1=O [Compound 1, 5-difluoromethyl-2-methyl-4-(2-methyl-5-phenylbenzyl)-2,4-dihydro-3H-1,2,4-triazol-3-one]	72.7	not more than 10%	no lesion was recognized at all	no lesion was recognized at all
